Data taken from the Kinase Knowledgebase extract (Sharma et al. 2016).

Target: EGFR (UniProt P00533)
Sequence (P00533 whole entry, looked up): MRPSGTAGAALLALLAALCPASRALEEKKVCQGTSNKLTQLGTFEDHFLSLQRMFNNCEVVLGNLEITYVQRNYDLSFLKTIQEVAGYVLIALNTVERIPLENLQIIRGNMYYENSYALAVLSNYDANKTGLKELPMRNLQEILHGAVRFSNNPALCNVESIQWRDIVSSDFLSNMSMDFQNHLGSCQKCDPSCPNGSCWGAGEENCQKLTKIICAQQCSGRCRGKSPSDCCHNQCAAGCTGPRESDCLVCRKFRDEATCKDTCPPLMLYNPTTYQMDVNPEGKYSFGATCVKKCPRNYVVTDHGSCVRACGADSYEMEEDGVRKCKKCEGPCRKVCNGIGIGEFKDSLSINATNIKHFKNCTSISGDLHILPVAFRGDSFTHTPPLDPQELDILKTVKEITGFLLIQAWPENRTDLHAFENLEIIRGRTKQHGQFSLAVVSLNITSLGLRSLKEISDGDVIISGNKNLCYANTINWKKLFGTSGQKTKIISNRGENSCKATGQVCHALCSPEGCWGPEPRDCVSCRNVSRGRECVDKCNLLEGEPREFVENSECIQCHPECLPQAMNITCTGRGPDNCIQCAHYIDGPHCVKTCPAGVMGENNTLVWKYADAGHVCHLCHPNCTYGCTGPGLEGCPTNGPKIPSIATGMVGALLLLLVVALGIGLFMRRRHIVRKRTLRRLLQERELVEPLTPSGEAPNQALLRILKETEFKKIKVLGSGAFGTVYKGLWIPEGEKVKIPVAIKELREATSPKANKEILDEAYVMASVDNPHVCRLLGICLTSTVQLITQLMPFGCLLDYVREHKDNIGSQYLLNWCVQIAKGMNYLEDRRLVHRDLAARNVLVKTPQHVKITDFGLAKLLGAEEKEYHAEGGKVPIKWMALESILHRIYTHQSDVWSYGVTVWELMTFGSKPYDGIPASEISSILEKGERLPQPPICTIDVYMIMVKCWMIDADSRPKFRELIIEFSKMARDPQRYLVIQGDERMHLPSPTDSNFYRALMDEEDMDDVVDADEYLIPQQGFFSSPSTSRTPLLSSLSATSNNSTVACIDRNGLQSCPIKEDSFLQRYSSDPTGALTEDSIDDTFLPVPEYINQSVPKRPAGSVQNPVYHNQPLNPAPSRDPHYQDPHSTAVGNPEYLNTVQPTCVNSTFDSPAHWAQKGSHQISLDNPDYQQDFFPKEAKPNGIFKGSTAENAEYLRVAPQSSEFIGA

IC50, > 10 µM:
O=C1C(c2cc(C(F)(F)F)cc(C(F)(F)F)c2)Cc2cnc(Nc3ccccc3)nc2N1c1ccccc1 (centres undefined)
COc1ccc(C2Cc3cnc(Nc4ccccc4)nc3N(c3ccccc3)C2=O)cc1OC (centres undefined)

IC50, < 10 µM:
O=C1C(c2ccncc2)Cc2cnc(Nc3ccccc3)nc2N1c1ccccc1 (centres undefined)
COc1cc(OC)cc(C2Cc3cnc(Nc4ccccc4)nc3N(c3ccccc3)C2=O)c1 (centres undefined)
COc1ccc(C2Cc3cnc(Nc4ccccc4)nc3N(c3ccccc3)C2=O)cc1 (centres undefined)
COc1ccccc1C1Cc2cnc(Nc3ccccc3)nc2N(c2ccccc2)C1=O (centres undefined)
COc1ccc(C2Cc3cnc(Nc4ccccc4)nc3N(CC(C)C)C2=O)cc1 (centres undefined)
Cc1ccccc1C1Cc2cnc(Nc3ccccc3)nc2N(c2ccccc2)C1=O (centres undefined)
O=C1C(c2cccnc2)Cc2cnc(Nc3ccccc3)nc2N1c1ccccc1 (centres undefined)
O=C1C(c2ccccc2)Cc2cnc(Nc3ccccc3)nc2N1c1ccccc1 (centres undefined)
COc1ccc(C2Cc3cnc(Nc4cccnc4)nc3N(CC3CC3)C2=O)cc1 (centres undefined)
COc1ccc(OC)c(C2Cc3cnc(Nc4ccccc4)nc3N(c3ccccc3)C2=O)c1 (centres undefined)
O=C1C(c2c(Cl)cccc2Cl)Cc2cnc(Nc3ccccc3)nc2N1c1ccccc1 (centres undefined)
COc1ccc(C2Cc3cnc(Nc4ccc(OC)nc4)nc3N(c3ccccc3)C2=O)cc1 (centres undefined)
